pIC50: −log10 of the molar value.
Tests used:
[1] = target: T1, ovine COX-1 (Ovis aries, UniProt P05979); assay: COX (ovine) Inhibitor Screening Assay, COX-1; format: biochemical; conditions: PGF2α by EIA, 18 hours of incubation
T1 sequence (P05979 25-600): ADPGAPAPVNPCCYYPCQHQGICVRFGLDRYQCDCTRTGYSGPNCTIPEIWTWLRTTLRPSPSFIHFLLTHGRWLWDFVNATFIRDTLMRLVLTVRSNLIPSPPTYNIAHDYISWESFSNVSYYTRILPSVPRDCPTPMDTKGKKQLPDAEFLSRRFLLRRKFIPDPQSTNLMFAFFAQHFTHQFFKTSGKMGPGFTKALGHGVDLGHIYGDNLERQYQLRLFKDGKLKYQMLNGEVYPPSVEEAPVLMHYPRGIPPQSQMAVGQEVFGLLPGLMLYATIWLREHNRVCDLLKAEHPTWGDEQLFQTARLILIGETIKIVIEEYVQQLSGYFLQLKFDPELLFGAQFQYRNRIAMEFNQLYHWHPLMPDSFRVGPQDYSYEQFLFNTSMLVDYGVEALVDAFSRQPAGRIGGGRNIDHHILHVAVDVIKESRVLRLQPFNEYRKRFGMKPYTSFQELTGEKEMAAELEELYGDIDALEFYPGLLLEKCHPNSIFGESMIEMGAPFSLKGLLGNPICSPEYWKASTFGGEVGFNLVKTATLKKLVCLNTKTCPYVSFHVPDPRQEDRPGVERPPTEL
Experimental: (§1) The COX (ovine) Inhibitor Screening Assay was performed mainly to determine the selective inhibition of tested compounds (6, 7, 8 and 9) towards the ovine COX-1 and human recombinant COX-2 isoenzymes. Adding arachidonic acid (AA) helped convert the COX component into PGG2, followed by a reduction of PGG2 into PGH2. The following addition of SnCl2 converted PGH2 into PGF2α. The assay directly measures the PGF2α via enzyme immunoassay (EIA) using a broadly specific antiserum that is bound to all PG tracers. Depending on the tested compounds inhibitory effect, the concentration of PGF2α in each well varied and was inversely proportional to the amount of PG tracers that were able to bind to the antiserum. PG tracers-antiserum complex was left to bind to the mouse monoclonal anti-rabbit antibody that had been coated to the well during the 18 hours of incubation. Ellman's reagent was added to give distinct yellow coloration to the products from this enzymatic reaction, which absorbed strongly at 412 nm. The intensity of the color was proportional to the amount of PG tracers-antiserum complex bound to the well, which was inversely proportional to the concentration of PGF2α present.
(§2) The inhibitory activity of tested compounds was determined based on IC50 values, whereas the selectivity was based on their selectivity indices (SI), which are defined as COX-1 IC50/COX-2 IC50. In the assay system, indomethacin was used as a non-selective COX inhibitor standard, while NS-398 was used as a COX-2 selective inhibitor standard.

[2] = target: T2, human recombinant COX-2 (Homo sapiens, UniProt P35354); assay: COX (ovine) Inhibitor Screening Assay, COX-2; format: biochemical; conditions: for pIC50: human recombinant COX-2, PGF2α by EIA, 18 hours of incubation; for selectivity of inhibition, COX-2 versus COX-1, in words: ovine COX-1 versus human recombinant COX-2
T2 sequence (P35354 18-604): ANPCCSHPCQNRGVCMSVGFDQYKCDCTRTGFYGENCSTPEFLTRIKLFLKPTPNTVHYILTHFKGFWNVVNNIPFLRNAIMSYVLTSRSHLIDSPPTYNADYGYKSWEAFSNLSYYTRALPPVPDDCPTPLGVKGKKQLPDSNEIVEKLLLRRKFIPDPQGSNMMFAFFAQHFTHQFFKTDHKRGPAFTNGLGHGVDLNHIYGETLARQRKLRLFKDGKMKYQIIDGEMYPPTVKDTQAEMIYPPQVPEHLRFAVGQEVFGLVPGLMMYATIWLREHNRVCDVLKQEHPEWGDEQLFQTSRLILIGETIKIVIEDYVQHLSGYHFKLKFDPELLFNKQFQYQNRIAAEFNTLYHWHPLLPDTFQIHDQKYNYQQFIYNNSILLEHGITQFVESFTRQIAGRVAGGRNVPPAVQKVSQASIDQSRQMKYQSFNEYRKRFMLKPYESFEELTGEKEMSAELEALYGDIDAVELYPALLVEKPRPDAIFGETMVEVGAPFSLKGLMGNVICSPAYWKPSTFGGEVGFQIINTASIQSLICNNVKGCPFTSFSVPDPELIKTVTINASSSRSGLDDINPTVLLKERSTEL
Experimental: as §1, §2

pIC50 [1] | SI (selectivity index, COX-1 IC50/COX-2 IC50) [2] | pIC50 [2] | selectivity of inhibition, COX-2 versus COX-1, in words [2] | Compound
4.41 | 0.68 | 4.25 | mild selective inhibition against COX-2 | O=c1[nH]c(Cc2ccc(F)cc2)nc2sc3c(c12)CCC3 [Compound 6, 2-(4-Fluorobenzyl)-3,5,6,7-tetrahydro-4H-cyclopenta[4,5]thieno[2,3-d]pyrimidin-4-one]
3.65 | 6.98 | 4.49 | mild selective inhibition against COX-2 | COc1ccc(Cc2nc3sc4c(c3c(=O)[nH]2)CCC4)cc1 [Compound 7, 2-(4-Methoxybenzyl)-3,5,6,7-tetrahydro-4H-cyclopenta[4,5]thieno[2,3-d]pyrimidin-4-one]
4.08 | 11.41 | 5.14 | mild selective inhibition against COX-2 | COc1ccc(-c2nc3sc4c(c3c(=O)[nH]2)CCC4)cc1 [Compound 8, 2-(4-Methoxyphenyl)-3,5,6,7-tetrahydro-4H-cyclopenta[4,5]thieno[2,3-d]pyrimidin-4-one]
4.16 | 1.26 | 4.26 | mild selective inhibition against COX-2 | O=C(Nc1nc2sc3c(c2c(=O)[nH]1)CCC3)c1ccc(F)cc1 [Compound 9, 4-Fluoro-N-(4-oxo-3,5,6,7-tetrahydro-4H-cyclopenta[4,5]thieno[2,3-d]pyrimidin-2-yl)benzamide]

Reference: patent US12227516B1, “Selective COX-2 inhibition of 2-(substituted benzyl)-3,5,6,7-tetrahydro-4H-cyclopenta[4,5]thieno[2,3-d]pyrimidin-4-ones and 4-fluoro-n-(4-oxo-3,5,6,7-tetrahydro-4H-cyclopenta[4,5]thieno[2,3-d]pyrimidin-2-yl)benzamide as anti-inflammatory agents” (KING FAISAL UNIVERSITY, priority 2023, dated 2025)
